# Compound: CC1=C(C(=NN1)C)CC2=C(C3=C(S2)N(C(=O)N(C3=O)C)CC(C)C)C(=O)N4C[C@@H](CO4)O + O=C(c1cc(Cc2n[nH]c(=O)c3ccccc23)ccc1F)N1CCN(C(=O)C2CC2)CC1 [Olaparib] (partner 8 µM)
# Test: relative viability (nuclei count vs DMSO), 5 days (fraction); higher = more cells survive
# Conditions: first compound 0.25 µM
# How it was run: (§1)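 The day after seeding in 1536-well plates, lung cancer cell lines were treated by pin tool with a single drug, or with a fixed anchor-drug dose together with five library-drug doses (not always all listed) in √10 steps. After 5 days, a combined fix-and-stain solution (final 0.05% Triton X-100, 1% formaldehyde, 1 ug/ml Hoechst) was added. Nuclei counted on 4× images gave relative viability as treated counts over vehicle counts, reported as the median of duplicate plates.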
row,Cell Line,relative viability
1,NCI-H1793,0.719
2,PC-14,0.368
3,EKVX,0.988

# Compound: Cc1ccccc1C(C(=O)NC1CCCCC1)N(C(=O)Cn1ccnc1C)c1cccc(F)c1 [IDH-C35] + CS(=O)(=O)N1CCN(Cc2cc3nc(-c4cccc5[nH]ncc45)nc(N4CCOCC4)c3s2)CC1 [Pictilisib] (partner 1 µM)
# Test: as above
# Conditions: first compound 0.08 µM
# How it was run: as §1
row,Cell Line,relative viability
1,NCI-H2405,0.487
2,HOP-62,0.509
3,HCC-44,0.537
4,LU99A,0.337
5,BEN,0.545
6,HARA,0.369
7,HCC-78,0.211
8,NCI-H322M,0.459
9,LCLC-97TM1,0.17
10,A-427,0.621
11,NCI-H441,0.588
12,NCI-H1734,0.503
13,NCI-H460,0.43
14,NCI-H2347,0.627
15,NCI-H1395,0.601
16,201T,0.651

row,Cell Line,relative viability
1,NCI-H1915,0.976
2,HCC-827,0.966
3,LXF-289,0.813
4,NCI-H23,0.473
5,NCI-H647,0.445
6,NCI-H1651,0.562
7,EPLC-272H,0.369
8,NCI-H1792,0.231
9,NCI-H1355,0.446
10,NCI-H3122,0.628
11,NCI-H1437,0.416
12,NCI-H1755,0.451
13,HCC-15,0.719
14,NCI-H1793,0.265
15,PC-14,0.712
16,EKVX,0.42

# Same assay, conditions: first compound 0.253 µM
row,Cell Line,relative viability
1,NCI-H2405,0.363
2,HOP-62,0.744
3,HCC-44,0.593
4,LU99A,0.299
5,BEN,0.568
6,HARA,0.455
7,HCC-78,0.243
8,NCI-H322M,0.488
9,LCLC-97TM1,0.168
10,A-427,0.801
11,NCI-H441,0.562
12,NCI-H1734,0.499
13,NCI-H460,0.438
14,NCI-H2347,0.603
15,NCI-H1395,0.555
16,201T,0.731

row,Cell Line,relative viability
1,NCI-H1915,0.914
2,HCC-827,0.921
3,LXF-289,0.767
4,NCI-H23,0.494
5,NCI-H647,0.411
6,NCI-H1651,0.522
7,EPLC-272H,0.338
8,NCI-H1792,0.3
9,NCI-H1355,0.442
10,NCI-H3122,0.572
11,NCI-H1437,0.494
12,NCI-H1755,0.411
13,HCC-15,0.727
14,NCI-H1793,0.336
15,PC-14,0.685
16,EKVX,0.459

# Same assay, conditions: first compound 0.8 µM
row,Cell Line,relative viability
1,NCI-H2405,0.377
2,HOP-62,0.537
3,HCC-44,0.551
4,LU99A,0.326
5,BEN,0.54
6,HARA,0.483
7,HCC-78,0.199
8,NCI-H322M,0.471
9,LCLC-97TM1,0.192
10,A-427,0.615
11,NCI-H441,0.456
12,NCI-H1734,0.427
13,NCI-H460,0.325
14,NCI-H2347,0.813
15,NCI-H1395,0.681
16,201T,0.634

row,Cell Line,relative viability
1,NCI-H1915,0.975
2,HCC-827,1.02
3,LXF-289,0.689
4,NCI-H23,0.526
5,NCI-H647,0.339
6,NCI-H1651,0.504
7,EPLC-272H,0.283
8,NCI-H1792,0.251
9,NCI-H1355,0.395
10,NCI-H3122,0.592
11,NCI-H1437,0.476
12,NCI-H1755,0.448
13,HCC-15,0.682
14,NCI-H1793,0.364
15,PC-14,0.641
16,EKVX,0.371

# Same assay, conditions: first compound 2.53 µM
row,Cell Line,relative viability
1,HCC-44,0.674
2,LU99A,0.317
3,BEN,0.54
4,HARA,0.415
5,HCC-78,0.243
6,NCI-H322M,0.496
7,A-427,0.466
8,NCI-H441,0.506
9,NCI-H1734,0.414
10,NCI-H460,0.326
11,NCI-H2347,0.788
12,NCI-H1395,0.603
13,201T,0.661
14,NCI-H1915,0.934
15,HCC-827,1.13
16,LXF-289,0.85
17,NCI-H23,0.397
18,NCI-H1651,0.492
19,NCI-H1792,0.345
20,NCI-H1355,0.269
21,NCI-H3122,0.611
22,NCI-H1437,0.439
23,NCI-H1755,0.452
24,HCC-15,0.618
25,NCI-H1793,0.371
26,PC-14,0.575
27,EKVX,0.423

# Same assay, conditions: first compound 8 µM
row,Cell Line,relative viability
1,NCI-H2405,0.52
2,HOP-62,0.581
3,HCC-44,0.632
4,LU99A,0.361
5,BEN,0.505
6,HARA,0.328
7,HCC-78,0.219
8,NCI-H322M,0.526
9,LCLC-97TM1,0.192
10,A-427,0.791
11,NCI-H441,0.446
12,NCI-H1734,0.432
13,NCI-H460,0.297
14,NCI-H2347,0.899
15,NCI-H1395,0.697
16,201T,0.676

row,Cell Line,relative viability
1,NCI-H1915,0.914
2,HCC-827,1.17
3,LXF-289,0.725
4,NCI-H23,0.456
5,NCI-H647,0.417
6,NCI-H1651,0.434
7,EPLC-272H,0.329
8,NCI-H1792,0.277
9,NCI-H1355,0.398
10,NCI-H3122,0.598
11,NCI-H1437,0.368
12,NCI-H1755,0.412
13,HCC-15,0.645
14,NCI-H1793,0.256
15,PC-14,0.642
16,EKVX,0.475
